Source: article PMC10672842, “Anti-Trypanosoma cruzi Activity, Mutagenicity, Hepatocytotoxicity and Nitroreductase Enzyme Evaluation of 3-Nitrotriazole, 2-Nitroimidazole and Triazole Derivatives” (Molecules, 2023)
Where two headings read alike, the source gives them in different places.

How the values were obtained:
[1] = test system: S. typhimurium TA100
Description: (§1) The compounds were tested in a reverse mutation assay preincubation protocol in the absence and presence of metabolic activation following standard protocols previously proposed by Maron and Ames. The histidine-dependent (his^−) strains TA98 and TA100 of Salmonella typhimurium were inoculated in 10 mL of Oxoid nutrient broth No. 2 containing 25 µg/mL ampicillin and incubated overnight (15–18 h) at 37 ± 1 °C on an orbital shaker (CT-712, Cientec, Belo Horizonte, MG, Brazil) at 150 rpm, obtaining a concentration of 1–2 × 10^9 cells/mL, confirmed by titration in nutrient agar plates. Briefly, 100 µL of stationary growth cultures of each strain were preincubated for 20 min on an orbital shaker (150 rpm) at 37 ± 1 °C, with 500 µL of 0.2 M phosphate buffer pH 7.4, or 500 µL of S9 mix 4% (Molecular Toxicology, Baltimore, MD, USA), and 100 µL of compound dilutions (0–5000 µM) or controls. DMSO 1% was used as a negative control. […] After incubation, 2 mL of top agar (0.7% agar, 0.5% NaCl, 0.05 mM L-histidine and D-biotin) at 45 ± 3 °C was added and gently mixed. The final mixture was poured on glucose minimal agar plates (1.5% agar, 10 g/L MgSO4·7H2O; 100 g/L of C6H8O7·H2O; 500 g/L K2HPO4; 175 g/L Na(NH4)HPO4·4H2O, 2% glucose) and incubated for 72 h at 37 ± 1 °C. The results were expressed as the mean of revertant colonies (His^+) per plate, standard deviation (SD) and mutagenicity induction fold (IF), calculated as the ratio between the number of colonies in the test group and the number of colonies in the negative control group. Mutagenic potency was calculated as the slope of the linear portion of the concentration–response function and expressed as revertants/µM. All assays were performed in triplicate and repeated at least two times. Statistical analyses were carried out in GraphPad Prism software (version 5.00, GraphPad Software, Boston, MA, USA).

[2] = test system: T. cruzi (Tulahuen strain); test: In vitro anti-T. cruzi evaluation in an intracellular model (trypomastigote and amastigote forms, L929 host cells, β-galactosidase readout); type: cell-based, Trypanosoma cruzi
Description: Derivatives 5–10 were evaluated in vitro against T. cruzi in an intracellular model on the trypomastigote and amastigote forms of the parasite of the Tulahuen strain [20]. This model is interesting because it mimics the life cycle of the parasite, as both clinically relevant forms are present in the environment. The mammalian host cells used were fibroblasts from L929 mice.
This assay was performed as previously described by Buckner et al. (1996) using T. cruzi (Tulahuen strain), which expresses the β-galactosidase gene of Escherichia coli. Infectious trypomastigote forms were obtained by culturing fibroblast monolayers of L929 mice in RPMI-1640 medium (pH 7.2–7.4) without phenol red (Gibco BRL), containing 10% fetal bovine serum and 2 mM glutamine. For the bioassay, 4000 L929 cells in 80 µL of supplemented medium were added to each well of a 96-well microtiter plate. After overnight incubation, 40,000 trypomastigotes in 20 µL were added to the cells and incubated for 2 h. […] The medium was then replaced with compound solutions at 1.0 µg/mL in fresh medium (200 µL), and the plate was incubated for 96 h at 37 °C. After this period, 50 µL of chlorophenol D-galactopyranoside red (500 µM) in 0.5% Nonidet P40 was added to each well, and the plate was incubated for 18 h at 37 °C. After this, the absorbance was measured at 570 nm. Controls with uninfected cells and infected cells treated with benznidazole were performed in parallel. The results are expressed as the percentage of T. cruzi growth inhibition in cells tested with compost compared to infected and untreated cells. The tests were performed in triplicate.

[3] = test system: S. typhimurium TA98; test: Salmonella reverse mutation assay (Ames test, preincubation), TA98
Description: as §1

`O=C(Cn1ccnc1[N+](=O)[O-])NCc1ccccc1` [BZN, benznidazole, reference compound] was tested, and the “Mutagenic potency (slope of the linear portion of the concentration–response function)” value ([1]; TA100, +S9) was 1382.2 revertants/µM, the “IF (induction factor)” value ([1]; TA100, +S9, 0.5 µM) was 0.9 and the “revertant His+ colonies, mean ± SD” value ([1]; TA100, +S9, 0.5 µM) was 95 ± 3. The “IF (induction factor)” value ([1]; TA100, +S9, 5 µM) was 1.0, the “revertant His+ colonies, mean ± SD” value ([1]; TA100, +S9, 5 µM) was 110 ± 8 and the “IF (induction factor)” value ([1]; TA100, +S9, 50 µM) was 2.5. For the same compound, the “revertant His+ colonies, mean ± SD” value ([1]; TA100, +S9, 50 µM) was 269 ± 13, the “IF (induction factor)” value ([1]; TA100, +S9, 500 µM) was 8.6 and the “revertant His+ colonies, mean ± SD” value ([1]; TA100, +S9, 500 µM) was 907 ± 10. For the same compound, the “Mutagenicity in the Ames test (verdict)” value ([1]; TA100, absence or presence of metabolic activation) was “mutagenic”, the “Mutagenic potency (slope of the linear portion of the concentration–response function)” value ([1]; TA100, −S9) was 1789.9 revertants/µM and the “IF (induction factor)” value ([1]; TA100, −S9, 0.5 µM) was 1.0. For the same compound, the “revertant His+ colonies, mean ± SD” value ([1]; TA100, −S9, 0.5 µM) was 130 ± 6, the “IF (induction factor)” value ([1]; TA100, −S9, 5 µM) was 1.6 and the “revertant His+ colonies, mean ± SD” value ([1]; TA100, −S9, 5 µM) was 217 ± 13. For the same compound, the “IF (induction factor)” value ([1]; TA100, −S9, 50 µM) was 6.2, the “revertant His+ colonies, mean ± SD” value ([1]; TA100, −S9, 50 µM) was 852 ± 40 and the “IF (induction factor)” value ([1]; TA100, −S9, 500 µM) was 28.2. The “revertant His+ colonies, mean ± SD” value ([1]; TA100, −S9, 500 µM) was 3848 ± 11, the “IF (induction factor)” value ([1]; TA100, −S9, 5000 µM) was 53.0 and the “revertant His+ colonies, mean ± SD” value ([1]; TA100, −S9, 5000 µM) was 7264 ± 62. The “Mutagen classification according to Claxton et al.” value ([1]; TA100, −S9 and +S9) was “extremely high mutagen”, the IC50 ([2]; Trypanosoma cruzi, TULAHUEN, L929, 96 h, read-out: IC50 T. cruzi) was 1500 ± 400 nM and the SI ([2]; selectivity index, L929 cells vs T. cruzi) was 1409. For the same compound, the “IF (induction factor)” value ([3]; TA98, +S9, 0.5 µM) was 0.9, the “revertant His+ colonies, mean ± SD” value ([3]; TA98, +S9, 0.5 µM) was 21 ± 2 and the “IF (induction factor)” value ([3]; TA98, +S9, 5 µM) was 0.9. For the same compound, the “revertant His+ colonies, mean ± SD” value ([3]; TA98, +S9, 5 µM) was 17 ± 2, the “IF (induction factor)” value ([3]; TA98, +S9, 50 µM) was 0.7 and the “revertant His+ colonies, mean ± SD” value ([3]; TA98, +S9, 50 µM) was 18 ± 1. The “IF (induction factor)” value ([3]; TA98, +S9, 500 µM) was 1.3, the “revertant His+ colonies, mean ± SD” value ([3]; TA98, +S9, 500 µM) was 31 ± 6 and the “IF (induction factor)” value ([3]; TA98, +S9, 5000 µM) was 1.4. For the same compound, the “revertant His+ colonies, mean ± SD” value ([3]; TA98, +S9, 5000 µM) was 33 ± 4, the “IF (induction factor)” value ([3]; TA98, −S9, 0.5 µM) was 1.1 and the “revertant His+ colonies, mean ± SD” value ([3]; TA98, −S9, 0.5 µM) was 28 ± 6. For the same compound, the “IF (induction factor)” value ([3]; TA98, −S9, 5 µM) was 1.1, the “revertant His+ colonies, mean ± SD” value ([3]; TA98, −S9, 5 µM) was 28 ± 4 and the “IF (induction factor)” value ([3]; TA98, −S9, 50 µM) was 1.1. The “revertant His+ colonies, mean ± SD” value ([3]; TA98, −S9, 50 µM) was 28 ± 2, the “IF (induction factor)” value ([3]; TA98, −S9, 500 µM) was 1.4 and the “revertant His+ colonies, mean ± SD” value ([3]; TA98, −S9, 500 µM) was 37 ± 5. For the same compound, the “IF (induction factor)” value ([3]; TA98, −S9, 5000 µM) was 2.5 and the “revertant His+ colonies, mean ± SD” value ([3]; TA98, −S9, 5000 µM) was 67 ± 4.
